Assay results taken from patent US20230165867A1 (CHENGDU BAIYU PHARMACEUTICAL CO., LTD., priority 2020, published 2023).
Like-named read-outs stand apart in the source and are kept apart here.

What was measured:
[1] = molecular target: T1, DNA-PK kinase (Homo sapiens, UniProt P78527); assay: Inhibition assay of DNA-PK kinase (Promega kit, ADP-Glo chemiluminescence); assay type: biochemical; conditions: 50 µM ATP, 37° C., 60 min; read-out: IC50 (nM), inhibitory activity on DNA-PK kinase
T1 construct: purchased Promega V4107
Experimental: The inhibitory activity of the compounds on DNA-PK kinase was measured by using a DNA-PK kinase assay kit (purchased from Promega, Cat.#: V4107, Lot: 0000366495). The results were quantified by chemiluminescence, and the detailed experimental protocol was as follows: • i. An ADP-fluorescence standard curve over a range of concentrations was plotted according to the kit instructions; • ii. […] The mixtures were mixed well, centrifuged (1000 rpm, 30 s), and incubated at 37° C. for 60 min; • iv. 5 µL of ADP-Glo™ Reagent was added to stop the reaction, which was then mixed well, centrifuged (1000 rpm, 30 s), and incubated at room temperature for 40 min; • v. 10 µL Kinase Detection Reagent was added, and the mixture was mixed well by shaking, centrifuged (1000 rpm, 30 s), and incubated at room temperature for 30 min; • vi. The […] was measured by using a microplate reader (Thermo fisher, Varioskan LUX).

[2] = Pharmacokinetic assay in ICR mice (i.v. and p.o.); assay type: in vivo; conditions: mouse, plasma, male ICR mice; for half-life: read-out: T½ (converted); for bioavailability: po 10 mg/kg vs iv 1 mg/kg
Experimental: ICR mice were purchased from Beijing Vital River Laboratory Animal Technology Co., Ltd.
3.2 Experimental procedure • (1) Healthy male ICR mice (18-22 g) were prepared, with 18 mice for each compound. The mice were divided into 2 groups (an i.v. group and a p.o. group), with 9 mice per group. 3 mice were picked for blood collection at each time point. • (2) After the animals were fasted overnight (with free access to water), the compound of the present invention dissolved (or suspended) in a solvent of 5% DMSO and 95% 30% HP-β-CD (v:v) was administered via the tail vein (i.v., 1 mg/kg) or intragastrically (p.o., 10 mg/kg), respectively. • (3) For the i.v. group, 0.1 mL blood was collected from the submandibular vein 5 min, 15 min, 0.5 h, 1 h, 2 h, 4 h, 8 h, 12 h, and 24 h after administration, respectively, anticoagulated with EDTA-K2, and centrifuged at 4° C. for 5 min to obtain plasma, which was stored at -20° C. until testing. (4) For the p.o. group, 0.1 mL blood was collected from the submandibular vein before administration and 15 min, 0.5 h, 1 h, 2 h, 4 h, 6 h, 8 h, 12 h, and 24 h after administration, and treated in the same manner as that for the intravenous group. • (5) The concentration of the compound of the present invention in plasma was measured by LC/MS/MS. • (6) Calculation and fitting were performed with Analyst 1.6 from AB Company, and the results are shown in Table 3.

Row | SMILES | IC50 [1] [nM] | other results
1 | Cc1cc(C(N)=O)c(F)cc1Nc1ncc2c(n1)n(C1CCCC(C)(O)C1)c(=O)n2C (centres unmarked) [Compound 91, 2-Fluoro-4-((9-(3-hydroxy-3-methylcyclohexyl)-7-methyl-8-oxo-8,9-dihydro-7H-purin-2-yl)amino)-5-methylbenzamide] | 2.44 | 
2 | Cc1cc(C(N)=O)c(F)cc1Nc1ncc2c(n1)n(C1CCC(CO)OC1)c(=O)n2C (centres unmarked) [Compound 96, 2-Fluoro-4-((9-(6-(hydroxymethyl)tetrahydro-2H-pyran-3-yl)-7-methyl-8-oxo-8,9-dihydro-7H-purin-2-yl)amino)-5-methylbenzamide] | 3.89 | 
3 | Cn1c(=O)n(C2CCOCC2)c2nc(Nc3cc(F)c(C(N)=O)cc3Cl)ncc21 [Compound 59, 5-Chloro-2-fluoro-4-((7-methyl-8-oxo-9-(tetrahydro-2H-pyran-4-yl)-8,9-dihydro-7H-purin-2-yl)amino)benzamide] | 12.1 | 
4 | Cc1cc(C(N)=O)c(O)cc1Nc1ncc2c(n1)n(C1CCOCC1)c(=O)n2C [Compound 50, 2-Hydroxy-5-methyl-4-((7-methyl-8-oxo-9-(tetrahydro-2H-pyran-4-yl)-8,9-dihydro-7H-purin-2-yl)amino)benzamide] | 12.7 | 
5 | Cc1cc(C(N)=O)c(F)cc1Nc1ncc2c(n1)n(C1C[C@@H]3COC[C@H]3C1)c(=O)n2C [Compound 99, 2-fluoro-4-((9-((3aS,6aS)-hexahydro-1H-cyclopenta[c]furan-5-yl)-7-methyl-8-oxo-8,9-dihydro-7H-purin-2-yl)amino)-5-methylbenzamide] | 2.13 | 
6 | Cc1cc(C(N)=O)c(F)cc1Nc1ncc2c(n1)n(C1CCC(O)C1)c(=O)n2C (centres unmarked) [Compound 67, 2-Fluoro-4-((9-(3-hydroxycyclopentyl)-7-methyl-8-oxo-8,9-dihydro-7H-purin-2-yl)amino)-5-methylbenzamide] | 2.96 | 
7 | Cc1cc(C(N)=O)c(F)cc1Nc1ncc2c(n1)n(C1CC3(CC(CO)C3)C1)c(=O)n2C (centres unmarked) [Compound 97, 2-Fluoro-4-((9-(6-(hydroxymethyl)spiro[3.3]heptan-2-yl)-7-methyl-8-oxo-8,9-dihydro-7H-purin-2-yl)amino)-5-methylbenzamide] | 0.68 | 
8 | Cc1sc(C(=O)O)cc1Nc1ncc2c(n1)n(C1CCOCC1)c(=O)n2C [Compound 41] |  | AUC ([2]; iv, 1 mg/kg): 357 ng·h/mL; half-life ([2]; iv, 1 mg/kg): 33 min; bioavailability [2]: 42.3%; AUC ([2]; po, 10 mg/kg): 1500 ng·h/mL; Cmax ([2]; po, 10 mg/kg): 2710 ng/mL; half-life ([2]; po, 10 mg/kg): 293 min
9 | [2H]C([2H])([2H])C([2H])([2H])n1c(=O)n(C2CCOCC2)c2nc(Nc3cc(F)c(C(N)=O)cc3C)ncc21 [Compound 105, 4-((7-(ethyl-d5)-8-oxo-9-(tetrahydro-2H-pyran-4-yl)-8,9-dihydro-7H-purin-2-yl)amino)-2-fluoro-5-methylbenzamide] | 5.54 | 
10 | Cc1cc(C(N)=O)c(F)cc1Nc1ncc2c(n1)n(C13CCC(C#N)(CC1)CC3)c(=O)n2C [Compound 90, 4-((9-(4-cyanobicyclo[2.2.2]octan-1-yl)-7-methyl-8-oxo-8,9-dihydro-7H-purin-2-yl)amino)-2-fluoro-5-methylbenzamide] | 10.8 | 
11 | Cc1cc(C(N)=O)c(F)cc1Nc1ncc2c(n1)n(C1CCCC(O)C1)c(=O)n2C (centres unmarked) [Compound 95, 2-Fluoro-4-((9-(-3-hydroxycyclohexyl)-7-methyl-8-oxo-8,9-dihydro-7H-purin-2-yl)amino)-5-methylbenzamide] | 0.6 | 
12 | [2H]C([2H])([2H])n1c(=O)n(C2CCOCC2)c2nc(Nc3ccc(C#N)cc3C)ncc21 (single isomer, unassigned) [Compound 6, 3-Methyl-4-((7-(methyl-d3)-8-oxo-9-(tetrahydro-2H-pyran-4-yl)-8,9-dihydro-7H-purin-2-yl)amino)benzonitrile] |  | AUC ([2]; iv, 1 mg/kg): 82.4 ng·h/mL; half-life ([2]; iv, 1 mg/kg): 17.9 min; bioavailability [2]: 179%; AUC ([2]; po, 10 mg/kg): 1480 ng·h/mL; Cmax ([2]; po, 10 mg/kg): 1220 ng/mL; half-life ([2]; po, 10 mg/kg): 57.8 min

The remaining compounds from weak to strong by IC50 [1], led by results:

Row | IC50 [1] [nM] | SMILES | other results
13 | 50.5 | Cc1cc(C(N)=O)c(F)cc1Nc1ncc2c(n1)n(C1CCOCC1)c(=O)n2C(C)C [Compound 63, 2-Fluoro-4-((7-isopropyl-8-oxo-9-(tetrahydro-2H-pyran-4-yl)-8,9-dihydro-7H-purin-2-yl)amino)-5-methylbenzamide] | 
14 | 34.1 | COC(=O)c1cc(C)c(Nc2ncc3c(n2)n(C2CCOCC2)c(=O)n3C)cc1F [Compound 51] | 
15 | 18.6 | Cc1cc(C(F)(F)F)ccc1Nc1ncc2c(n1)n(C1CCOCC1)c(=O)n2C [Compound 3, 7-Methyl-2-((2-methyl-4-(trifluoromethyl)phenyl)amino)-9-(tetrahydro-2H-pyran-4-yl)-7,9-dihydro-8H-purin-8-one] | 
16 | 13.5 | COC(=O)c1cc(C)c(Nc2ncc3c(n2)n(C2CCOCC2)c(=O)n3C)cc1C#N [Compound 45] | 
17 | 9.8 | Cc1sc(C#N)cc1Nc1ncc2c(n1)n(C1CCOCC1)c(=O)n2C [Compound 43, 5-Methyl-4-((7-methyl-8-oxo-9-(tetrahydro-2H-pyran-4-yl)-8,9-dihydro-7H-purin-2-yl)amino)thiophene-2-carbonitrile] | 
18 | 9.6 | Cc1cc(C#N)ccc1Nc1ncc2c(n1)n(C1CCS(=O)(=O)CC1)c(=O)n2C [Compound 101, 4-((9-(1,1-dioxidotetrahydro-2H-thiopyran-4-yl)-7-methyl-8-oxo-8,9-dihydro-7H-purin-2-yl)amino)-3-methylbenzonitrile] | 
19 | 8.3 | Cc1cc(Cl)ccc1Nc1ncc2c(n1)n(C1CCOCC1)c(=O)n2C [Compound 4, 2-((4-chloro-2-methylphenyl)amino)-7-methyl-9-(tetrahydro-2H-pyran-4-yl)-7,9-dihydro-8H-purin-8-one] | 
20 | 6.75 | Cc1cc(C(N)=O)c(F)cc1Nc1ncc2c(n1)n(C1CCOCC1)c(=O)n2CC(F)F [Compound 106, 4-((7-(2,2-difluoroethyl)-8-oxo-9-(tetrahydro-2H-pyran-4-yl)-8,9-dihydro-7H-purin-2-yl)amino)-2-fluoro-5-methylbenzamide] | 
21 | 5.28 | Cc1ccc(C#N)cc1Nc1ncc2c(n1)n(C1CCOCC1)c(=O)n2C [Compound 15, 4-Methyl-3-((7-methyl-8-oxo-9-(tetrahydro-2H-pyran-4-yl)-8,9-dihydro-7H-purin-2-yl)amino)benzonitrile] | 
22 | 4.14 | CO[C@H]1CC[C@@H](n2c(=O)n(C)c3cnc(Nc4cc(F)c(C(N)=O)cc4C)nc32)CC1 [Compound 70, 2-Fluoro-4-((9-(cis-4-methoxycyclohexyl)-7-methyl-8-oxo-8,9-dihydro-7H-purin-2-yl)amino)-5-methylbenzamide] | 
23 | 3.69 | Cc1cc(C(N)=O)c(C#N)cc1Nc1ncc2c(n1)n(C1CCOCC1)c(=O)n2C [Compound 47, 2-cyano-5-methyl-4-((7-methyl-8-oxo-9-(tetrahydro-2H-pyran-4-yl)-8,9-dihydro-7H-purin-2-yl)amino)benzamide] | 
24 | 3.34 | Cc1cc(C(N)=O)c(F)cc1Nc1ncc2c(n1)n(C1CCOCC1)c(=O)n2C1CC1 [Compound 64, 4-((7-cyclopropyl-8-oxo-9-(tetrahydro-2H-pyran-4-yl)-8,9-dihydro-7H-purin-2-yl)amino)-2-fluoro-5-methylbenzamide] | 
25 | 2.2 | Cc1cc(C#N)ccc1Nc1ncc2c(n1)n(C1CC3COCC3C1)c(=O)n2C (centres unmarked) [Compound 100, 4-((9-(hexahydro-1H-cyclopenta[c]furan-5-yl)-7-methyl-8-oxo-8,9-dihydro-7H-purin-2-yl)amino)-3-methylbenzonitrile] | 
26 | 2.17 | CO[C@H]1CC[C@H](n2c(=O)n(C)c3cnc(Nc4cc(F)c(C(N)=O)cc4C)nc32)CC1 [Compound 71, 2-Fluoro-4-((9-(trans-4-methoxycyclohexyl)-7-methyl-8-oxo-8,9-dihydro-7H-purin-2-yl)amino)-5-methylbenzamide] | 
27 | 0.44 | Cc1cc(C(N)=O)c(F)cc1Nc1ncc2c(n1)n(C1CCC3(CC1)COC3)c(=O)n2C [Compound 86, 2-Fluoro-5-methyl-4-((7-methyl-8-oxo-9-(2-oxaspiro[3.5]nonan-7-yl)-8,9-dihydro-7H-purin-2-yl)amino)benzamide] | 
28 | 0.01 | Cc1cc(C(N)=O)c(F)cc1Nc1ncc2c(n1)n(C1CCCCC1)c(=O)n2C [Compound 68, 4-((9-cyclohexyl-7-methyl-8-oxo-8,9-dihydro-7H-purin-2-yl)amino)-2-fluoro-5-methylbenzamide] | 
